System: female NMRI mice
Experiment: Anorectic action: milk consumption of fasted mice after oral administration
Format: in vivo, mouse
Protocol: The efficacy of the compounds was tested as follows:
The anorectic action was tested on female NMRI mice. After withdrawal of food for 24 hours, a test preparation of the invention was administered via a stomach tube. Kept individually and with free access to drinking water, the animals were offered evaporated milk 30 minutes after the administration of the preparation. The consumption of evaporated milk was determined half-hourly for 1.5 hours and the general condition of the animals was observed. The measured milk consumption was compared with that of untreated control animals.

OC1c2cc(Cl)ccc2C2(O)N=C(c3ccccc3)SC12 (centres unmarked) [Example 1, 6-Chloro-2-phenyl-8,8a-dihydroindeno[1,2-d]thiazole-3a,8-diol]
cumulated milk consumption of the treated animals (food withdrawn for 24 hours, oral dose 30 mg/kg via stomach tube, evaporated milk offered 30 minutes after administration, consumption determined half-hourly for 1.5 hours): 5/1.06 ml | Reduction of the cumulated milk consumption in % of the control (oral dose 30 mg/kg, compared to untreated control animals, 1.5 hours): 31%

— patent US6410577B1, “Substituted 8,8a-dihydro-3ah-indeno[1,2-d]thiazoles, processes for their preparation and their use as medicaments” (Aventis Pharma Deutschland GmbH, priority 2000, dated 2002)
